#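 The compound was tested at five concentrations on cells cultured in 96-well plates, with a 48-hour exposure period. The concentration for 50% growth inhibition is given as GI50.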 The source made the active and inactive calls. Rule as the data show it: active = GI50 up to about 1.1 µM and inactive = higher.
# Tests used:
# Assay in all cases: growth of human tumour cells (NCI), 48 h
# NCI-H226 = system: NCI-H226
# MOLT-4 = system: MOLT-4
# SK-MEL-2 = system: SK-MEL-2
# SK-MEL-28 = system: SK-MEL-28
# SK-MEL-5 = system: SK-MEL-5
# DU-145 = system: DU-145
# 786-0 = system: 786-0
# HCT-15 = system: HCT-15
# U-251 = system: U-251
# SN12C = system: SN12C
# M14 = system: M14
# CAKI-1 = system: CAKI-1
# OVCAR-3 = system: OVCAR-3
# SF-295 = system: SF-295
# SW-620 = system: SW-620
# A498 = system: A498
# T47D = system: T47D
# UACC-257 = system: UACC-257
# NCI-H23 = system: NCI-H23
# Hs-578T = system: Hs-578T
# HL-60 = system: HL-60
# IGROV-1 = system: IGROV-1
# K562 = system: K562
# A549 = system: A549
# TK-10 = system: TK-10
# NCI-H460 = system: NCI-H460
# SNB-19 = system: SNB-19
# HT-29 = system: HT-29
# MDA-MB-435 = system: MDA-MB-435
# CCRF-CEM = system: CCRF-CEM
# SF-268 = system: SF-268
# MDA-MB-231 = system: MDA-MB-231
# SR = system: SR
# BT-549 = system: BT-549
# KM12 = system: KM12
# PC-3 = system: PC-3
# OVCAR-4 = system: OVCAR-4
# NCI/ADR-RES = system: NCI/ADR-RES
# UACC-62 = system: UACC-62
# SF-539 = system: SF-539
# OVCAR-8 = system: OVCAR-8
# RPMI-8226 = system: RPMI-8226
# LOX IMVI = system: LOX IMVI
# UO-31 = system: UO-31
# MDA-N = system: MDA-N
# COLO 205 = system: COLO 205
# HCT-116 = system: HCT-116
# MCF7 = system: MCF7
# Malme-3M = system: Malme-3M
# SK-OV-3 = system: SK-OV-3
# ACHN = system: ACHN
# SNB-75 = system: SNB-75
# HOP-92 = system: HOP-92
# NCI-H522 = system: NCI-H522
# RXF 393 = system: RXF 393
# HOP-62 = system: HOP-62
# OVCAR-5 = system: OVCAR-5
# EKVX = system: EKVX
structure (smiles),measurement,setting,value
CC(=O)n1cc(OP(=O)(Oc2ccccc2)Oc2ccccc2)c2ccccc21,GI50,NCI-H226,27.7 µM (inactive)
same,GI50,MOLT-4,16.9 µM (inactive)
same,GI50,SK-MEL-2,22.2 µM (inactive)
same,GI50,SK-MEL-28,29.3 µM (inactive)
same,GI50,SK-MEL-5,19 µM (inactive)
same,GI50,DU-145,72.3 µM (inactive)
same,GI50,786-0,32.1 µM (inactive)
same,GI50,HCT-15,29 µM
same,GI50,U-251,33.5 µM (inactive)
same,GI50,SN12C,29.2 µM (inactive)
same,GI50,M14,18.9 µM (inactive)
same,GI50,CAKI-1,13.1 µM (inactive)
same,GI50,OVCAR-3,24.2 µM (inactive)
same,GI50,SF-295,38.9 µM (inactive)
same,GI50,SW-620,44.2 µM (inactive)
same,GI50,A498,54 µM (inactive)
same,GI50,T47D,32.7 µM (inactive)
same,GI50,UACC-257,25.7 µM (inactive)
same,GI50,NCI-H23,33.3 µM (inactive)
same,GI50,Hs-578T,40.8 µM (inactive)
same,GI50,HL-60,16 µM (inactive)
same,GI50,IGROV-1,8.53 µM (inactive)
same,GI50,K562,23.2 µM (inactive)
same,GI50,A549,32.4 µM (inactive)
same,GI50,TK-10,50.6 µM (inactive)
same,GI50,NCI-H460,22.6 µM (inactive)
same,GI50,SNB-19,58.9 µM (inactive)
same,GI50,HT-29,36 µM (inactive)
same,GI50,MDA-MB-435,17.9 µM (inactive)
same,GI50,CCRF-CEM,22.9 µM (inactive)
same,GI50,SF-268,19.7 µM (inactive)
same,GI50,MDA-MB-231,24.8 µM (inactive)
same,GI50,SR,10.9 µM (inactive)
same,GI50,BT-549,34.4 µM (inactive)
same,GI50,KM12,35.6 µM (inactive)
same,GI50,PC-3,10.3 µM (inactive)
same,GI50,OVCAR-4,29.6 µM (inactive)
same,GI50,NCI/ADR-RES,16.7 µM (inactive)
same,GI50,UACC-62,16.9 µM (inactive)
same,GI50,SF-539,15.8 µM (inactive)
same,GI50,OVCAR-8,39.7 µM (inactive)
same,GI50,RPMI-8226,19.2 µM (inactive)
same,GI50,LOX IMVI,23.2 µM (inactive)
same,GI50,UO-31,22.1 µM (inactive)
same,GI50,MDA-N,27.6 µM (inactive)
same,GI50,COLO 205,13.2 µM (inactive)
same,GI50,HCT-116,21.4 µM (inactive)
same,GI50,MCF7,10.1 µM (inactive)
same,GI50,Malme-3M,36.4 µM (inactive)
CCCCCCCCCCCCCCCC(=O)OCC(COP(=O)(O)OCCNC(=O)CCSSc1ccccn1)OC(=O)CCCCCCCCCCCCCCC (stereo not given),GI50,NCI-H226,> 100 µM (inactive)
same,GI50,MOLT-4,> 100 µM (inactive)
same,GI50,SK-OV-3,> 100 µM (inactive)
same,GI50,SK-MEL-2,> 100 µM (inactive)
same,GI50,SK-MEL-28,> 100 µM (inactive)
same,GI50,SK-MEL-5,> 100 µM (inactive)
same,GI50,DU-145,> 100 µM (inactive)
same,GI50,786-0,> 100 µM (inactive)
same,GI50,HCT-15,> 100 µM
same,GI50,ACHN,> 100 µM (inactive)
same,GI50,U-251,> 100 µM (inactive)
same,GI50,SN12C,> 100 µM (inactive)
same,GI50,M14,> 100 µM (inactive)
same,GI50,CAKI-1,> 100 µM (inactive)
same,GI50,SNB-75,> 100 µM (inactive)
same,GI50,OVCAR-3,> 100 µM (inactive)
same,GI50,SF-295,> 100 µM (inactive)
same,GI50,HOP-92,> 100 µM (inactive)
same,GI50,SW-620,> 100 µM (inactive)
same,GI50,A498,> 100 µM (inactive)
same,GI50,NCI-H522,> 100 µM (inactive)
same,GI50,T47D,> 100 µM (inactive)
same,GI50,UACC-257,> 100 µM (inactive)
same,GI50,NCI-H23,> 100 µM (inactive)
same,GI50,Hs-578T,> 100 µM (inactive)
same,GI50,HL-60,> 100 µM (inactive)
same,GI50,IGROV-1,> 100 µM (inactive)
same,GI50,K562,> 100 µM (inactive)
same,GI50,A549,> 100 µM (inactive)
same,GI50,NCI-H460,> 100 µM (inactive)
same,GI50,SNB-19,> 100 µM (inactive)
same,GI50,HT-29,> 100 µM (inactive)
same,GI50,MDA-MB-435,> 100 µM (inactive)
same,GI50,CCRF-CEM,> 100 µM (inactive)
same,GI50,SF-268,> 100 µM (inactive)
same,GI50,MDA-MB-231,> 100 µM (inactive)
same,GI50,SR,> 100 µM (inactive)
same,GI50,BT-549,> 100 µM (inactive)
same,GI50,KM12,> 100 µM (inactive)
same,GI50,PC-3,> 100 µM (inactive)
same,GI50,OVCAR-4,> 100 µM (inactive)
same,GI50,NCI/ADR-RES,> 100 µM (inactive)
same,GI50,RXF 393,> 100 µM (inactive)
same,GI50,UACC-62,> 100 µM (inactive)
same,GI50,SF-539,> 100 µM (inactive)
same,GI50,OVCAR-8,> 100 µM (inactive)
same,GI50,RPMI-8226,> 100 µM (inactive)
same,GI50,UO-31,> 100 µM (inactive)
same,GI50,MDA-N,> 100 µM (inactive)
same,GI50,HOP-62,> 100 µM (inactive)
same,GI50,OVCAR-5,> 100 µM (inactive)
same,GI50,COLO 205,> 100 µM (inactive)
same,GI50,HCT-116,> 100 µM (inactive)
same,GI50,MCF7,> 100 µM (inactive)
same,GI50,Malme-3M,> 100 µM (inactive)
same,GI50,EKVX,> 100 µM (inactive)

# Source: ChEMBL document CHEMBL1201862, “PubChem BioAssay data set” (2004)
